Results: PMC12655637, “Design, Synthesis, and Mechanistic Study of Novel Ciprofloxacin/Thiazole Chalcone Hybrids as Potential Anticancer Agents” (Pharmaceuticals, 2025)
Like-named read-outs stand apart in the source and are kept apart here.

Experiments:
Experiment in all cases: NCI-60 screening, one-dose (10 µM) and five-dose, SRB
[1] = test system: HL-60(TB); format: cell-based, human; details: Homo sapiens, HL-60, 10 μM; HL-60(TB), Leukemia; read-out: Growth percentage
[2] = test system: RPMI-8226; format: cell-based, human; details: Homo sapiens, RPMI-8226, 10 μM; RPMI-8226, Leukemia; read-out: Growth percentage
[3] = test system: A549/ATCC; format: cell-based, human; details: Homo sapiens, 10 μM, Non-Small-Cell Lung Cancer, read-out: Growth percentage
[4] = test system: NCI-H226; format: cell-based, human; details: Homo sapiens; 10 μM; NCI-H226, Non-Small-Cell Lung Cancer; read-out: Growth percentage
[5] = test system: NCI-H23; format: cell-based, human; details: Homo sapiens; 10 μM; NCI-H23, Non-Small-Cell Lung Cancer; read-out: Growth percentage
[6] = test system: NCI-H460; format: cell-based, human; details: Homo sapiens, NCI-H460, 10 μM; NCI-H460, Non-Small-Cell Lung Cancer; read-out: Growth percentage
[7] = test system: COLO 205; format: cell-based, human; details: Homo sapiens; 10 μM; COLO 205, Colon Cancer; read-out: Growth percentage
[8] = test system: HCC-2998; format: cell-based, human; details: Homo sapiens; 10 μM; HCC-2998, Colon Cancer; read-out: Growth percentage
[9] = test system: HCT-15; format: cell-based, human; details: Homo sapiens; 10 μM; HCT-15, Colon Cancer; read-out: Growth percentage
[10] = test system: HT29; format: cell-based, human; details: Homo sapiens, HT-29; 10 μM; HT29, Colon Cancer; read-out: Growth percentage
[11] = test system: KM12; format: cell-based, human; details: Homo sapiens, KM12, 10 μM; KM12, Colon Cancer; read-out: Growth percentage
[12] = test system: SW-620; format: cell-based, human; details: Homo sapiens; 10 μM; SW-620, Colon Cancer; read-out: Growth percentage
[13] = test system: LOX IMVI; format: cell-based, human; details: Homo sapiens, 10 μM, Melanoma, read-out: Growth percentage
[14] = test system: SK-MEL-2; format: cell-based, human; details: Homo sapiens; 10 μM; SK-MEL-2, Melanoma; read-out: Growth percentage
[15] = test system: SK-MEL-5; format: cell-based, human; details: Homo sapiens; 10 μM; SK-MEL-5, Melanoma; read-out: Growth percentage
[16] = test system: OVCAR-3; format: cell-based; details: Homo sapiens; 10 μM; OVCAR-3, Ovarian Cancer; read-out: Growth percentage
[17] = test system: SK-OV-3; format: cell-based, human; details: Homo sapiens; 10 μM; SK-OV-3, Ovarian Cancer; read-out: Growth percentage
[18] = test system: ACHN; format: cell-based, human; details: Homo sapiens, 10 μM, Renal Cancer, read-out: Growth percentage
[19] = test system: CAKI-1; format: cell-based; details: Homo sapiens
[20] = test system: RXF 393; format: cell-based; details: Homo sapiens
[21] = test system: SN12C; format: cell-based, human; details: Homo sapiens, 10 μM, Renal Cancer, read-out: Growth percentage
[22] = test system: TK-10; format: cell-based, human; details: Homo sapiens; 10 μM; TK-10, Renal Cancer; read-out: Growth percentage
[23] = test system: PC-3; format: cell-based, human; details: Homo sapiens; 10 μM; PC-3, Prostate Cancer; read-out: Growth percentage
[24] = test system: MDA-MB231/ATCC; format: cell-based; details: 10 μM; MDA-MB231/ATCC, Breast Cancer
[25] = test system: HS 578T; format: cell-based, human; details: Homo sapiens, 10 μM, Breast Cancer, read-out: Growth percentage
[26] = test system: MDA-MB-468; format: cell-based, human; details: Homo sapiens, MDA-MB-468, 10 μM; MDA-MB-468, Breast Cancer; read-out: Growth percentage
From the text: Control cells Test cells FLD
available usually at NCI library.
An aliquot of frozen drug concentrate is […]

[27] = 10 μM, RXF 393, Renal Cancer, read-out: Growth percentage
[28] = 10 μM, CAKI-1, Renal Cancer, read-out: Growth percentage

Structure (SMILES) | activity at 10 µM [1] [%] | activity at 10 µM [2] [%] | activity at 10 µM [3] [%] | activity at 10 µM [4] [%] | activity at 10 µM [5] [%] | activity at 10 µM [6] [%] | activity at 10 µM [7] [%] | activity at 10 µM [8] [%] | activity at 10 µM [9] [%] | activity at 10 µM [10] [%] | activity at 10 µM [11] [%] | activity at 10 µM [12] [%] | activity at 10 µM [13] [%] | activity at 10 µM [14] [%] | activity at 10 µM [15] [%] | activity at 10 µM [16] [%] | activity at 10 µM [17] [%] | activity at 10 µM [18] [%] | activity at 10 µM [21] [%] | activity at 10 µM [22] [%] | other results
Cc1nc(SCC(=O)N2CCN(c3cc4c(cc3F)c(=O)c(C(=O)O)cn4C3CC3)CC2)sc1C(=O)/C=C/c1ccc(Cl)cc1 [Compound 4c, (E)-7-(4-(2-((5-(3-(4-Chlorophenyl)acryloyl)-4-methylthiazol-2-yl)thio)acetyl)piperazin-1-yl)-1-cyclopropyl-6-fluoro-4-oxo-1,4-dihydroquinoline-3-carboxylic Acid] | 92.9 | 7.7 | 115 | 107 | 96.5 | 106 | 107 | 104 | 102 | 108 | 104 | 113 | 80.9 | 99.4 | 100 | 188 | 129 | 96.4 | 96.7 | 106 | activity at 10 µM ([19]; CAKI-1, read-out: Growth percentage): 100%; activity at 10 µM [20, 27]: 109%; activity at 10 µM [23]: 100%; Growth percentage [24]: 100.1%; activity at 10 µM [25]: 105%; activity at 10 µM [26]: 110%
Cc1nc(SCC(=O)N2CCN(c3cc4c(cc3F)c(=O)c(C(=O)O)cn4C3CC3)CC2)sc1C(=O)/C=C/c1ccc(F)cc1 [Compound 4e, (E)-1-Cyclopropyl-6-fluoro-7-(4-(2-((5-(3-(4-fluorophenyl)acryloyl)-4-methylthiazol-2-yl)thio)acetyl)piperazin-1-yl)-4-oxo-1,4-dihydroquinoline-3-carboxylic Acid] | 107 | 29.1 | 104 | 98.3 | 101 | 108 | 119 | 107 | 96.8 | 115 | 97.3 | 126 | 91.2 | 104 | 99.9 | 116 | 114 | 98.9 | 99.5 | 103 | activity at 10 µM [19, 28]: 97.4%; activity at 10 µM [20, 27]: 95.9%; activity at 10 µM [23]: 96.6%; Growth percentage [24]: 101.1%; activity at 10 µM [25]: 105%; activity at 10 µM [26]: 106%
Cc1nc(SCC(=O)N2CCN(c3cc4c(cc3F)c(=O)c(C(=O)O)cn4C3CC3)CC2)sc1C(=O)/C=C/c1ccc(Br)cc1 [Compound 4f, (E)-7-(4-(2-((5-(3-(4-Bromophenyl)acryloyl)-4-methylthiazol-2-yl)thio)acetyl)piperazin-1-yl)-1-cyclopropyl-6-fluoro-4-oxo-1,4-dihydroquinoline-3-carboxylic Acid] | 83.3 | 31.5 | 107 | 107 | 102 | 107 | 112 | 115 | 106 | 117 | 108 | 116 | 90.5 | 105 | 101 | 170 | 110 | 107 | 101 | 108 | activity at 10 µM [19, 28]: 101%; activity at 10 µM ([20]; RXF 393, read-out: Growth percentage): 107%; activity at 10 µM [23]: 102%; Growth percentage [24]: 98.6%; activity at 10 µM [25]: 99.6%; activity at 10 µM [26]: 109%
Cc1nc(SCC(=O)N2CCN(c3cc4c(cc3F)c(=O)c(C(=O)O)cn4C3CC3)CC2)sc1C(=O)/C=C/c1cccc([N+](=O)[O-])c1 [Compound 4g, (E)-1-Cyclopropyl-6-fluoro-7-(4-(2-((4-methyl-5-(3-(3-nitrophenyl)acryloyl)thiazol-2-yl)thio)acetyl)piperazin-1-yl)-4-oxo-1,4-dihydroquinoline-3-carboxylic Acid] | 80.5 | 9.9 | 90.3 | 102 | 87.8 | 106 | 90.5 | 50.3 | 71.7 | 37.2 | 21.7 | 69.8 | 34.2 | 68.9 | 81.7 | 163 | 121 | 110 | 65.4 | 109 | activity at 10 µM [19, 28]: 92.6%; activity at 10 µM [20, 27]: 92.9%; activity at 10 µM [23]: 112%; Growth percentage [24]: 92.4%; activity at 10 µM [25]: 99.1%; activity at 10 µM [26]: 92.8%
